Source: patent US20150246093A1, “ORAL FORMULATIONS OF ANGIOTENSIN” (TARIX PHARMACEUTICALS LTD., priority 2012, published 2015)
Like-named read-outs stand apart in the source and are kept apart here.

Assay: Pharmacokinetics after intra-duodenal injection (ID) in anesthetized rats, model mimicking enteric-coated oral dosage form, plasma LC-MS
Type: in vivo, rat
Conditions: rat, plasma; for Tmax / AUC(0-t) / Cmax / Half-Life: other: intra-duodenal injection (ID); for AUC(0-t): read-out: AUC0-90 (converted); for Cmax: read-out: Cmax; for level at 5 min: time point 5 min; for level at 5 min / level at 10 min / level at 20 min / level at 40 min / level at 1 h / level at 1.5 h: Average, read-out: Angiotensin (1-7) concentration; for level at 10 min: time point 10 min; for level at 20 min: time point 20 min; for level at 40 min: time point 40 min; for level at 1 h: time point 60 min; for level at 1.5 h: time point 90 min
Description: This model mimics the release and absorption expected from an orally delivered enteric coated solid dosage form such as capsule or tablet.
After extraction, the samples were then transferred to ice-cold tubes containing a protease inhibitor cocktail. The samples were kept on ice until they were centrifuged at 4° C. to obtain plasma. The plasma supernatants were then frozen −70° C. until analysis using an LC-MS assay.
The oral delivery of an angiotensin (1-7) peptide (e.g., TXA127) was then evaluated in a rat model that mimics the release of the peptide into the intestine by enteric-coated capsule. Briefly, the duodenums of anesthetized rats were surgically exposed, and an angiotensin (1-7) peptide was delivered through a 27 gauge needle into the duodenum. A baseline was obtained by ID administration of an angiotensin (1-7) in PBS. Samples of blood was removed from the carotid artery before and 5, 10, 20, 40, 60 and 90 minutes after peptide administration. Subsequently, an angiotensin (1-7) peptide was administered ID in 400 mM citrate buffer (pH 3.5) and lauroyl-L-carnitine (LLC) (10 mg/ml), a formulation that mimics the contents of the enteric-coated capsules. In order to maximize the stability of TXA127 in rat circulation, captopril (e.g., 0.5 mg/ml or 5 mg/ml) may be added to the formulations. Blood samples were taken at the same time points as the baseline study and handled as described above for analysis.

[1] = 3 mg, ID 0.3 ml A [10 mg/ml in PBS], Mean PK Values (average of individual PK parameters)
[2] = 3 mg, pH 3.5, ID 0.3 ml B [10 mg/ml, 10 mg/ml LLC, 400 mM Citrate pH 3.5, 150 mM NaCl], Average (PK value of the mean concentrations)
[3] = 3 mg, pH 3.5, ID 0.3 ml B [10 mg/ml, 10 mg/ml LLC, 400 mM Citrate pH 3.5, 150 mM NaCl], Mean PK Values (average of individual PK parameters)
[4] = 3 mg, pH 3.5, ID 0.3 ml C [10 mg/ml, Captopril 0.5 mg/ml, 10 mg/ml LLC, 400 mM Citrate pH 3.5, 150 mM NaCl], Average (PK value of the mean concentrations)
[5] = 3 mg, pH 3.5, ID 0.3 ml C [10 mg/ml, Captopril 0.5 mg/ml, 10 mg/ml LLC, 400 mM Citrate pH 3.5, 150 mM NaCl], Mean PK Values (average of individual PK parameters)
[6] = 3 mg, pH 3.5, ID 0.3 ml C [10 mg/ml, Captopril 5 mg/ml, 10 mg/ml LLC, 400 mM Citrate pH 3.5, 150 mM NaCl], Average (PK value of the mean concentrations)
[7] = 3 mg, pH 3.5, ID 0.3 ml C [10 mg/ml, Captopril 5 mg/ml, 10 mg/ml LLC, 400 mM Citrate pH 3.5, 150 mM NaCl], Mean PK Value (average of individual PK parameters)
[8] = pH 3.5, ID 0.3 ml C [10 mg/ml, Captopril 0.5 mg/ml, 10 mg/ml LLC, 400 mM Citrate pH 3.5, 150 mM NaCl]
[9] = pH 3.5, ID 0.3 ml C [10 mg/ml, Captopril 5 mg/ml, 10 mg/ml LLC, 400 mM Citrate pH 3.5, 150 mM NaCl]

Tmax (3 mg, ID 0.3 ml A [10 mg/ml in PBS], Average (PK value of the mean concentrations), read-out: Tmax (converted)): 60 min
AUC(0-t) [1]: 6.72 ng·h/mL
Cmax [1]: 7.5 ng/mL
Half-Life (3 mg, ID 0.3 ml A [10 mg/ml in PBS], Mean PK Values (average of individual PK parameters), read-out: Half-Life): 38.9 min
Tmax (3 mg, ID 0.3 ml A [10 mg/ml in PBS], Mean PK Values (average of individual PK parameters), read-out: Tmax (converted)): 46 min
Half-Life (3 mg, ID, 0.3 mL of 10 mg/mL A(1-7) formulated in PBS, 6 rats, range over the group, read-out: Half-lives): 7 to 140 min
Tmax (3 mg, ID, 0.3 mL of 10 mg/mL A(1-7) formulated in PBS, 6 rats, range over the group, read-out: Tmax after administration): 10 to 60 min
AUC(0-t) [2]: 71.2 ng·h/mL
Cmax [2]: 416 ng/mL
Half-Life (3 mg, pH 3.5, ID 0.3 ml B [10 mg/ml, 10 mg/ml LLC, 400 mM Citrate pH 3.5, 150 mM NaCl], Average (PK value of the mean concentrations), read-out: Half-Life): 13 min
Tmax (3 mg, pH 3.5, ID 0.3 ml B [10 mg/ml, 10 mg/ml LLC, 400 mM Citrate pH 3.5, 150 mM NaCl], Average (PK value of the mean concentrations), read-out: Tmax (converted)): 5 min
AUC(0-t) [3]: 71.2 ng·h/mL
Cmax [3]: 419 ng/mL
Half-Life (3 mg, pH 3.5, ID 0.3 ml B [10 mg/ml, 10 mg/ml LLC, 400 mM Citrate pH 3.5, 150 mM NaCl], Mean PK Values (average of individual PK parameters), read-out: Half-Life): 46.4 min
Tmax (3 mg, pH 3.5, ID 0.3 ml B [10 mg/ml, 10 mg/ml LLC, 400 mM Citrate pH 3.5, 150 mM NaCl], Mean PK Values (average of individual PK parameters), read-out: Tmax (converted)): 5.8 min
Tmax (3 mg, pH 3.5, ID 0.3 ml B [10 mg/ml, 10 mg/ml LLC, 400 mM Citrate pH 3.5, 150 mM NaCl], individual rats, read-out: Tmax (converted)): 5 min
AUC(0-t) [4]: 126 ng·h/mL
Cmax [4]: 628 ng/mL
Half-Life (3 mg, pH 3.5, ID 0.3 ml C [10 mg/ml, Captopril 0.5 mg/ml, 10 mg/ml LLC, 400 mM Citrate pH 3.5, 150 mM NaCl], Average (PK value of the mean concentrations), read-out: Half-Life): 14 min
Tmax (3 mg, pH 3.5, ID 0.3 ml C [10 mg/ml, Captopril 0.5 mg/ml, 10 mg/ml LLC, 400 mM Citrate pH 3.5, 150 mM NaCl], Average (PK value of the mean concentrations), read-out: Tmax (converted)): 5 min
AUC(0-t) [5]: 119 ng·h/mL
Cmax [5]: 609 ng/mL
Half-Life (3 mg, pH 3.5, ID 0.3 ml C [10 mg/ml, Captopril 0.5 mg/ml, 10 mg/ml LLC, 400 mM Citrate pH 3.5, 150 mM NaCl], Mean PK Values (average of individual PK parameters), read-out: Half-Life): 19.4 min
Tmax (3 mg, pH 3.5, ID 0.3 ml C [10 mg/ml, Captopril 0.5 mg/ml, 10 mg/ml LLC, 400 mM Citrate pH 3.5, 150 mM NaCl], Mean PK Values (average of individual PK parameters), read-out: Tmax (converted)): 7.1 min
Tmax (3 mg, pH 3.5, ID 0.3 ml C [10 mg/ml, Captopril 0.5 mg/ml, 10 mg/ml LLC, 400 mM Citrate pH 3.5, 150 mM NaCl], individual rats, read-out: Tmax (converted)): 5 min
AUC(0-t) [6]: 157 ng·h/mL
Cmax [6]: 619 ng/mL
Half-Life (3 mg, pH 3.5, ID 0.3 ml C [10 mg/ml, Captopril 5 mg/ml, 10 mg/ml LLC, 400 mM Citrate pH 3.5, 150 mM NaCl], Average (PK value of the mean concentrations), read-out: Half-Life): 13 min
Tmax (3 mg, pH 3.5, ID 0.3 ml C [10 mg/ml, Captopril 5 mg/ml, 10 mg/ml LLC, 400 mM Citrate pH 3.5, 150 mM NaCl], Average (PK value of the mean concentrations), read-out: Tmax (converted)): 5 min
AUC(0-t) [7]: 156 ng·h/mL
Cmax [7]: 640 ng/mL
Half-Life (3 mg, pH 3.5, ID 0.3 ml C [10 mg/ml, Captopril 5 mg/ml, 10 mg/ml LLC, 400 mM Citrate pH 3.5, 150 mM NaCl], Mean PK Value (average of individual PK parameters), read-out: Half-Life): 14.1 min
Tmax (3 mg, pH 3.5, ID 0.3 ml C [10 mg/ml, Captopril 5 mg/ml, 10 mg/ml LLC, 400 mM Citrate pH 3.5, 150 mM NaCl], Mean PK Value (average of individual PK parameters), read-out: Tmax (converted)): 5.8 min
Tmax (3 mg, pH 3.5, ID 0.3 ml C [10 mg/ml, Captopril 5 mg/ml, 10 mg/ml LLC, 400 mM Citrate pH 3.5, 150 mM NaCl], individual rats, read-out: Tmax (converted)): 5 min
Half-Life (3 mg, pH 3.5, ID, 0.3 mL of 10 mg/mL A(1-7) with 10 mg/mL LLC, 400 mM Citrate, 150 mM NaCl pH 3.5, range over the group, read-out: Half-lives): 9.3 to 173 min
Tmax (3 mg, pH 3.5, ID, 0.3 mL of 10 mg/mL A(1-7) with 10 mg/mL LLC, 400 mM Citrate, 150 mM NaCl pH 3.5, range over the group, read-out: Tmax after administration): 5 to 10 min
Half-Life (pH 3.5, ID, 0.3 mL of 10 mg/mL A(1-7) with 0.5 mg/mL captopril, 10 mg/mL LLC, 400 mM Citrate, 150 mM NaCl pH 3.5, seven rats (Table 4), range over the group, read-out: Half-lives): 11.9 to 29.1 min
Half-Life (ID, 0.3 mL of 10 mg/mL A(1-7) with 0.5 mg/mL captopril (as printed in the text on Table 5), 10 mg/mL LLC, 400 mM Citrate, 150 mM NaCl pH 3.5, six rats, range over the group, read-out: Half-lives): 7.97 to 25.6 min
Tmax (ID, 0.3 mL of 10 mg/mL A(1-7) with 0.5 mg/mL captopril, 10 mg/mL LLC, 400 mM Citrate, 150 mM NaCl pH 3.5, seven rats (Table 4), range over the group, read-out: Tmax after administration): 5 to 10 min
level at 5 min [8]: 628 ng/mL
level at 10 min [8]: 233 ng/mL
level at 20 min [8]: 129 ng/mL
level at 40 min [8]: 13.9 ng/mL
level at 1 h [8]: 14.4 ng/mL
level at 1.5 h [8]: 7.74 ng/mL
level at 5 min [9]: 619 ng/mL
level at 10 min [9]: 424 ng/mL
level at 20 min [9]: 138 ng/mL
level at 40 min [9]: 24.1 ng/mL
level at 1 h [9]: 19.2 ng/mL
level at 1.5 h [9]: 5.83 ng/mL
SMILES: CC[C@H](C)[C@H](NC(=O)[C@H](Cc1ccc(O)cc1)NC(=O)[C@@H](NC(=O)[C@H](CCCNC(=N)N)NC(=O)[C@@H](N)CC(=O)O)C(C)C)C(=O)N[C@@H](Cc1c[nH]cn1)C(=O)N1CCC[C@H]1C(=O)O [Angiotensin (1-7), Asp^1-Arg^2-Val^3-Tyr^4-Ile^5-His^6-Pro^7]
